The text below walks through data of PubChem BioAssay (NCI).

Several values for one entry are separate records, joined by “and”; a condition that tells them apart may be missing. Equal values may be shown once.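 Dose response: 5 concentrations. Exposure: 48 h. Format: 96-well plates. Endpoint: linear interpolation; highest concentration if not reached. At the GI50, growth is halved. TGI: concentration producing complete growth inhibition.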

Test in all cases: NCI anticancer screen, dose series, 48 h
Test [1] concerns EKVX NSCLC.
The test system of test [2] is M14 melanoma.
The subject of test [3] is NCI-H23 lung.
Test [4] has as its system SF-295 CNS.
Test [5] deals with SK-MEL-2 melanoma.
Test [6] relates to SK-OV-3 ovarian.
In test [7] the test system is T-47D breast.
Test [8] has as its system TK-10 renal.
Test [9] deals with UACC-62 melanoma.
In test [10] the test system is UO-31 renal.

Turning to `COC(=O)C1=CO[C@@H](OC2OC(CO)C(O)C(O)C2O)[C@@H]2[C@H](C)[C@@H](O)[C@@H](O)[C@]12O` (stereo partly drawn), the TGI in test [1], in [2], in test [3], in test [4], in test [5] and in [6] was > 100 µM each time. Also, the TGI in [7], in test [8], in test [9] and in test [10] was > 100 µM throughout.

For `Clc1ccc(N/N=C(\c2ccccc2)c2ccccn2)nc1`, the GI50 in [1] is 0.0726 µM; in test [2], 0.0879 µM; in test [3] it was 0.279 µM; in test [4] it was 0.506 µM; in test [5], 0.796 µM; in test [7], < 0.0163 µM. The GI50 in test [8] was 0.338 µM; in test [9], 0.288 µM; in [10] it was 0.163 µM. The TGI in test [2] is 14.4 µM and 16.1 µM; in test [3], > 77.9 µM and 12.9 µM; in [4], > 53.6 µM and 17.7 µM; in [5], > 95.1 µM and 32.3 µM; in test [6], > 100 µM; in [7] it was > 100 µM. Besides, the TGI in test [8] was > 100 µM; in [9] it was > 36.6 µM and 15.5 µM; in [10] it was 2.38 µM and 0.817 µM.

Regarding `COc1cc2c(c(OC)c1OC)C(=O)c1c-2n(CCCN=[N+]=[N-])c(=O)c2cc([N+](=O)[O-])ccc12`, the GI50 in test [1] was > 100 µM; in test [2], > 100 µM; in test [3], 50.8 µM; in test [4] it was 71.2 µM; in [5] it was 22.8 µM; in [6], 62.7 µM. The GI50 in test [7] is > 100 µM; in test [8] it was > 100 µM; in test [9], 39.7 µM; in [10], 69.7 µM. Besides, the TGI in test [1] is > 100 µM; in test [2], > 100 µM; in test [3] it was > 100 µM; in test [4], > 100 µM; in [5] it was 70.7 µM; in test [6], > 100 µM. For the same molecule, the TGI in test [7], in test [8], in test [9] and in test [10] was > 100 µM throughout.

Consider `CC(=O)[O][Hg][CH2]C1(C)COC(C)([CH2][Hg][O]C(C)=O)CO1` (stereo not drawn), for which the GI50 in test [1] was 18.4 µM; in [2] it was 13.6 µM; in test [3] it was 13.2 µM; in [4], 3.62 µM; in test [5], 4.31 µM; in [6], 17.5 µM. In addition, the GI50 in [7] was 2.94 µM; in test [8], 2.29 µM; in test [9], 4.94 µM; in [10], 5.07 µM. Also, the TGI turned out to be 36.3 µM in [1]; 27.4 µM in test [2]; 29.3 µM in test [3]; 8.44 µM in test [4]; 16.4 µM in [5]; 31.8 µM in test [6]. The TGI is 21.4 µM in [7], 6.2 µM in test [8], 9.26 µM in test [9] and 9.83 µM in test [10].
